Laboratory results: US4668680A, “5-amino-6,8-difluoroquinolones as antibacterial agents” (Warner-Lambert Company, priority 1985, dated 1987)
In brackets after ≈: the same amount, converted by molar mass. Like-named read-outs stand apart in the source and are kept apart here.

Assays:
Test in all cases: in vitro antibacterial activity, microtitration dilution method
Assay type in all cases: cell-based
[1] = system: Enterobacter cloacae MA 2646; details: MA2646, read-out: Minimal Inhibitory Concentration MIC
[2] = system: Escherichia coli Vogel; details: read-out: Minimal Inhibitory Concentration MIC
Description: (§1) The compounds of the invention display antibacterial activity as shown in the following table when tested by the microtitration dilution method as described in Heifetz, et al, Antimicr. Agents & Chemoth., 6, 124 (1974), which is incorporated herein by reference. […]

[3] = system: Klebsiella pneumoniae MGH-2
Description: as §1

[4] = system: Proteus rettgeri M 1771; details: Providencia rettgeri
Description: as §1

[5] = system: Pseudomonas aeruginosa UI-18
Description: as §1

[6] = system: Staphylococcus aureus H 228
Description: as §1

[7] = system: Staphylococcus aureus UC-76
Description: as §1

[8] = system: Streptococcus faecalis MGH-2; details: Enterococcus faecalis
Description: as §1

[9] = system: Streptococcus pneumonia SV-1; details: Streptococcus pneumoniae
Description: as §1

[10] = system: Streptococcus pyogenes C-203
Description: as §1

[11] = MGH2, Klebsiella pneumoniae MGH-2, read-out: Minimal Inhibitory Concentration MIC
[12] = M1771, Proteus rettgeri M 1771, read-out: Minimal Inhibitory Concentration MIC
[13] = UI18, Pseudomonas aeruginosa UI-18, read-out: Minimal Inhibitory Concentration MIC
[14] = H228, Staphylococcus aureus H 228, read-out: Minimal Inhibitory Concentration MIC
[15] = UC76, Staphylococcus aureus UC-76, read-out: Minimal Inhibitory Concentration MIC
[16] = MGH2, Streptococcus faecalis MGH-2, read-out: Minimal Inhibitory Concentration MIC
[17] = SV1, Streptococcus pneumonia SV-1, read-out: Minimal Inhibitory Concentration MIC
[18] = C203, Streptococcus pyogenes C-203, read-out: Minimal Inhibitory Concentration MIC

SMILES	MIC [1]	MIC [2]	MIC [3, 11]	MIC [4, 12]	MIC [5, 13]	MIC [6, 14]	MIC [7, 15]	MIC [8, 16]	MIC [9, 17]	MIC [10, 18]	MIC ([3]; Klebsiella pneumoniae, MGH2, read-out: Minimal Inhibitory Concentration MIC)	MIC ([4]; M1771, read-out: Minimal Inhibitory Concentration MIC)	MIC ([5]; Pseudomonas aeruginosa, UI18, read-out: Minimal Inhibitory Concentration MIC)	MIC ([6]; Staphylococcus aureus, H228, read-out: Minimal Inhibitory Concentration MIC)	MIC ([7]; Staphylococcus aureus, UC76, read-out: Minimal Inhibitory Concentration MIC)	MIC ([8]; MGH2, read-out: Minimal Inhibitory Concentration MIC)	MIC ([9]; SV1, read-out: Minimal Inhibitory Concentration MIC)	MIC ([10]; Streptococcus pyogenes, C203, read-out: Minimal Inhibitory Concentration MIC)
Nc1c(F)c(N2CCNCC2)c(F)c2c1c(=O)c(C(=O)O)cn2C1CC1 [Ex. 1, 5-amino-1-cyclopropyl-6,8-difluoro-1,4-dihydro-4-oxo-7-(1-piperazinyl)-3-quinolinecarboxylic acid]	0.013 µg/mL (≈ 0.0357 µM)	0.013 µg/mL (≈ 0.0357 µM)	0.025 µg/mL (≈ 0.0686 µM)	0.05 µg/mL (≈ 0.137 µM)	0.025 µg/mL (≈ 0.0686 µM)	0.05 µg/mL (≈ 0.137 µM)	0.013 µg/mL (≈ 0.0357 µM)	0.05 µg/mL (≈ 0.137 µM)	0.05 µg/mL (≈ 0.137 µM)	0.2 µg/mL (≈ 0.549 µM)								
O=C(O)c1cn(C2CC2)c2cc(N3CCNCC3)c(F)cc2c1=O [Ciprofloxacin, 1-cyclopropyl-6-fluoro-1,4-dihydro-4-oxo-7-piperazinyl-3-quinoline-carboxylic acid, reference compound]		0.05 µg/mL (≈ 0.151 µM)									0.1 µg/mL (≈ 0.302 µM)	0.1 µg/mL (≈ 0.302 µM)	0.4 µg/mL (≈ 1.21 µM)	3.1 µg/mL (≈ 9.36 µM)	0.2 µg/mL (≈ 0.604 µM)	0.8 µg/mL (≈ 2.41 µM)	1.6 µg/mL (≈ 4.83 µM)	0.8 µg/mL (≈ 2.41 µM)
CN1CCN(c2c(F)c(N)c3c(=O)c(C(=O)O)cn(C4CC4)c3c2F)CC1 [Ex. 2, 5-Amino-1-cyclopropyl-6,8-difluoro-1,4-dihydro-7-(4-methyl-1-piperazinyl)-4-oxo-3-quinolinecarboxylic acid]	0.013 µg/mL (≈ 0.0344 µM)	0.013 µg/mL (≈ 0.0344 µM)	0.013 µg/mL (≈ 0.0344 µM)	0.05 µg/mL (≈ 0.132 µM)	0.1 µg/mL (≈ 0.264 µM)	0.05 µg/mL (≈ 0.132 µM)	0.025 µg/mL (≈ 0.0661 µM)	0.1 µg/mL (≈ 0.264 µM)	0.2 µg/mL (≈ 0.529 µM)	0.4 µg/mL (≈ 1.06 µM)								
